Measured values reported in patent US20260209152A1, “Substituted Hydroxystilbene Compounds and Derivatives, Synthesis and Uses Thereof” (Kynan Duke IP, LLC, priority 2019, published 2026).
Where two headings read alike, the source gives them in different places.

Experiments:
human PBMC = assay: Cell viability in PBMC IL-17 assay (assay number 1322); type: cell-based; settings: Homo sapiens
Procedure: (§1) The inflammatory skin disease psoriasis is characterized by cytokines IL-17A and TNFα. In the present assay, human peripheral blood mononuclear cells (PBMC) are stimulated with beads coated with antibodies against CD3 and CD28 to activate the T-cell receptor, and stimulated with IL-23 to promote T-helper17 activity. The cells are incubated for three days, then the secreted level of IL-17A is measured in the culture supernatant using AlphaLISA and the amount of living cells is measured by addition of resazurin (PrestoBlue®) to identify compounds that inhibit cell proliferation or viability. […] Compounds which inhibit IL-17A secretion may be expected to have efficacy in psoriasis.
(§2) • IL-17A concentration in the supernatants is measured using an alphaLISA kit (Perkin Elmer, cat no. AL219F). • Pretest to find optima dilution of samples: Test 5 μL supernatant from control wells and run IL-17A alphaLISA assay with only 2 hours of incubation. • When data are available, remove assay plates from incubation and equilibrate to room temperature for 30 minutes. • Transfer 5 μL or corrected amounts of supernatant to a 384-proxy plate • Add 5 μL alphaLISA acceptor beads. • Incubate 1 hour at room temperature • Add 5 μL donor beads • Incubate overnight at room temperature protected from light. • Add 7 μL PrestoBlue reagent (resazurin)/well to the assay plate and incubated for 2-4 hours at 37° C./5% CO2. The fluorescence in the wells is measured (Ex615/Em 535).
(§3) The level of living cells in the wells is measured by the addition of PrestoBlue® and the conversion of Resazurin to Resorufin (fluorescent) in living cells is measured.
(§4) The effect of the test compounds on viability/proliferation is normalized to the PrestoBlue signal in the negative control wells treated with a toxic compound, Terfenadine.

[1] = as above; type: cell-based, human; settings: human
Procedure: as §1, §2, §3, §4

[2] = tested on: IL-2 secretion from human CD4-positive T-cells stimulated with antiCD2/antiCD3/antiCD28-coated beads; assay: T-cell IL-2 assay (assay number 1297, 1298); type: cell-based; settings: for Max Eff.: IL-2 (1297): highest effect as percentage of control maximum effect; for EC50: inhibition of IL-2 secretion, human CD4-positive T-cells, read-out: Abs EC50: IL-2 (1297)
Procedure: Inhibition of IL-4 and IL-2 secretion from human CD4-positive T-cells stimulated with antiCD2/antiCD3/antiCD28-coated beads. LEO Pharma Open Innovation assay number 1297, 1298, 1299.
Then the level of secreted of IL-4 is measured in the culture supernatant using electrochemiluminescence (MSD kits, Meso Scale Discovery), IL-2 is measured by proximity homogenous time-resolved fluorescence (HTRF) and the amount of living cells is measured by addition of resazurin (PrestoBlue®) to allow identifying compounds that inhibit T-cell proliferation or viability.
• Peripheral blood mononuclear cells (PBMC) are isolated from fresh human buffy coats by centrifugation on Lymphoprep® following instructions from Sebmate™ (Stemcell). • The cells are resuspended in 30 ml of PBS+2% Serum and counted. • CD4 positive T-cells are isolated from freshly isolated PBMC using EasySep™ humane CD4+ T-cell Isolation Kit (Catalog #17952) and following the manufacturer's protocol. • Cells are spun down and resuspended in freezing medium (X-vivo 15+10% FBS+5% DMSO) • Cells are frozen in aliquots of 3×10^7 cells/vial matching one 384 plate. Cells are place in Coolcell box and place in −80° C. freezer for one day then transferred to the −150° C. freezer in a prechilled box.
• Prepare assay medium: 500 ml X-Vivo 15+5 ml Glutamax (2 mM final)+5 ml pen/strep (100 U/ml final). • Add 5 μL medium to the wells of a 384 well plate (Greiner cat. No 788986). • CD4+ Cells: Thaw frozen cells from −150° C. freezer in 37° C. bath, and pipette the cells into 10 ml medium. Spin 10 min @170 g. • Resuspend pellet in 3.5 ml per 2.5×10^7 cells and add 10 μL per well to the plate (40000 cells/well) • Test compounds: Prepare compound-containing source plate, i.e. titrations in DMSO to be transferred to the assay plate. • Add 25 nL compounds and controls from the source plate to the assay plate (with cells). • Beads (T Cell Activation/Expansion Kit-human, Miltenyi Biotech, cat. no. 130-091-441): Coat beads with antibodies according to the kit procedure. • Add 10 μL beads to each well except for the negative controls. One bead per cell. Add 10 μL medium to the negative controls. • Incubate plates at 37° C., 5% CO2/95% air for 2 days.
• Remove plates from incubation and equilibrate to room temperature for 30 minutes. • IL-4 concentration in 10 μL supernatant is measured using an MSD IL-4 384-plate kit (Custom made) according to manufacturer protocol. • IL-2 concentrations in the supernatant is measured by an IL-2 HTRF kit, CisBio, cat. No 62HIL02PEH. • Add 4 μL medium to white proxi 384-well plates • Add 1 μL supernatant. • Add 4 μL mHTRF mix (each diluted 1:300 in ⅔ reconstitution buffer and ⅓ assay medium). • Spin the plates for 1 minute at 170 g • Seal and incubate overnight and read fluorescence in a plate reader • The amount of viable cells is measured by PrestoBlue® reagent • Add 15 μL diluted PrestoBlue® reagent (resazurin) corresponding to 2.5 μL Prestoblue/well to the assay plate. • Incubate overnight at 37° C./5% CO2. The fluorescence in the wells is measured (Ex615/Em 535).
IL-4 concentration in the supernatants is measured using electrochemiluminescence (MSD kits, Meso Scale Discovery). IL-2 concentration in the supernatants is measured using homogeneous time-resolved fluorescence resonance (TR-FRET). The assay is quantified by measuring fluorescence at 665 nm (proportional to IL-2 concentration) and 620 nm (control). A ratio 665/620*1000 is calculated.
The capacity of the test compound to inhibit IL-4 and IL-2 release is normalized to the signal in the negative control wells with un-stimulated T-cells.

[3] = cell viability in PBMC IL-17 assay, read-out: Abs EC50: Viab (1322)
[4] = maximum reduction of cell viability in PBMC IL-17 assay, read-out: Max Eff.: Viab (1322)

| EC50 [2] [µM] | SMILES | EC50 (human PBMC; [3]) [µM] | cytotoxicity at 3 days [1, 4] [%] | Max Eff.: IL-2 (1297) [2] [%] | EC50 (human PBMC; PBMC IL-17 assay, read-out: EC50, cell viability) [µM] | cytotoxicity at 3 days ([1]; PBMC IL-17 assay, read-out: maximum reduction of cell viability) [%] | inhibition of IL-2 secretion, in words [2] |
| --- | --- | --- | --- | --- | --- | --- | --- |
| 4.26 | CCOc1cc(O)cc(/C=C/c2ccc(NC=O)c(OC)c2)c1CC=C(C)C [Compound 28, (E)-N-(4-(3-Ethoxy-5-hydroxy-2-(3-methylbut-2-en-1-yl)styryl)-2-methoxyphenyl)formamide] | 0.659 |  | 55 | 0.659 | 54 | lower potency effect |
| 5 | COc1cc(/C=C/c2cc(O)cc(OC)c2CC=C(C)C)ccc1NC(=O)CN [Compound 31, (E)-2-amino-N-(4-(5-hydroxy-3-methoxy-2-(3-methylbut-2-en-1-yl)styryl)-2-methoxyphenyl)acetamide] | 5 | 32 | 36 |  |  |  |
| 5 | CCOc1cc(O)cc(/C=C/c2ccc(NC(=O)C(=O)O)c(OC)c2)c1CC=C(C)C [Compound 35, (E)-2-((4-(3-Ethoxy-5-hydroxy-2-(3-methylbut-2-en-1-yl)styryl)-2-methoxyphenyl)amino)-2-oxoacetic acid] | 5 | 18 | 16 |  |  |  |

The remaining lines, values behind:

| SMILES | EC50 [2] [µM] | EC50 (human PBMC; [3]) [µM] | cytotoxicity at 3 days [1, 4] [%] | Max Eff.: IL-2 (1297) [2] [%] | EC50 (human PBMC; PBMC IL-17 assay, read-out: EC50, cell viability) [µM] | cytotoxicity at 3 days ([1]; PBMC IL-17 assay, read-out: maximum reduction of cell viability) [%] | inhibition of IL-2 secretion, in words [2] |
| --- | --- | --- | --- | --- | --- | --- | --- |
| COc1cc(/C=C/c2cc(O)cc(OC)c2CC=C(C)C)ccc1O [Compound 1, (E)-3-(4-hydroxy-3-methoxystyryl)-5-methoxy-4-(3-methylbut-2-en-1-yl)phenol] | 5 | 5 | 50 | 42 |  |  |  |
| CCOc1cc(O)cc(/C=C/c2ccc(O)c(OC)c2)c1CC=C(C)C [Compound 8, (E)-3-Ethoxy-5-(4-hydroxy-3-methoxystyryl)-4-(3-methylbut-2-en-1-yl)phenol] | 5 | 0.582 | 57 | 51 |  |  |  |
| CCOc1cc(O)cc(/C=C/c2ccc(O)c(O)c2)c1CC=C(C)C [Compound 20, (E)-4-(3-Ethoxy-5-hydroxy-2-(3-methylbut-2-en-1-yl)styryl)benzene-1,2-diol] | 5 | 5 | 47 | 34 |  |  |  |
| COc1cc(/C=C/c2cc(O)cc(OC)c2CC=C(C)C)ccc1NC=O [Compound 27, (E)-N-(4-(5-hydroxy-3-methoxy-2-(3-methylbut-2-en-1-yl)styryl)-2-methoxyphenyl)formamide] | 5 | 5 | 52 | 46 |  |  |  |
